Reference: PMC8976910, “Novel oxadiazole derivatives as potent inhibitors of α-amylase and α-glucosidase enzymes: Synthesis, in vitro evaluation, and molecular docking studies” (Iranian Journal of Basic Medical Sciences, 2021)
≈ marks a conversion by molar mass, not a printed value.

How the values were obtained:
[1] = target: T1, porcine pancreatic amylase (Sus scrofa, UniProt P00690); assay: In vitro alpha-amylase inhibitory activity (starch/DNS, 540 nm); format: biochemical; conditions: for % Inhibition (alpha-amylase): concentration not stated (test compounds 1–100 μg/ml); for IC50: porcine pancreatic amylase, pH 6.8, 25 °C, test compounds 1–100 μg/ml, ± SEM, read-out: IC50 µg/ml ± SEM (alpha-amylase inhibition) (converted)
T1 sequence (P00690 16-511): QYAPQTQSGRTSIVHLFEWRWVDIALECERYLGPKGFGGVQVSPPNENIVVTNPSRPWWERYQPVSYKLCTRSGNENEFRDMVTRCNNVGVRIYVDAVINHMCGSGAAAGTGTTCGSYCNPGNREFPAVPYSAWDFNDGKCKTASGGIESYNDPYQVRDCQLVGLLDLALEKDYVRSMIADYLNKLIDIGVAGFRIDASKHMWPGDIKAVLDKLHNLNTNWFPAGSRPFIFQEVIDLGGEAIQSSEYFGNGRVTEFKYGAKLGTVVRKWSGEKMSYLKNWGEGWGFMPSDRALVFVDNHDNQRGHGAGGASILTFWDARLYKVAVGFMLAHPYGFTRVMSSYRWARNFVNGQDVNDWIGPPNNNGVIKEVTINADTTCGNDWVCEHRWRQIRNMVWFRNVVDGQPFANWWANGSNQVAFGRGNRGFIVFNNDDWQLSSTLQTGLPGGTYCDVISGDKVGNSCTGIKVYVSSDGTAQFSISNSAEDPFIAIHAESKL
Method: To this reaction mixture, 1% starch solution was added (500 μl in 0.2 mM phosphate buffer, pH 6.8) and incubated for an additional 10 min. 1 ml of DNS (di-nitro-salicylic-acid) color reagent was added to arrest the reaction. The reaction mixture was boiled for 10 min and then brought to ambient temperature. The absorbance of the resulting mixture was measured at 540 nm and the inhibitory activity was calculated using the following formula.
% Inhibition =(Astandard -Asample)/Astandard× 100
The IC50 was calculated using non-linear regression plot of % inhibition versus concentrations with the help of GraphPad Prism, version 6.0.

α-glucosidase = assay: In vitro alpha-glucosidase inhibitory activity (p-NPG, 400 nm); format: biochemical; conditions: for % Inhibition (alpha-glucosidase): concentration not stated (test compounds 1-100 μg/ml); for IC50 µg/ml ± SEM (alpha-glucosidase inhibition): p-NPG substrate, 37 °C, test compounds 1-100 μg/ml
Method: The α-glucosidase inhibitory activity was determined according to a previously reported method with slight modifications([19]). […] A 500 μl solution was prepared by adding 10 μl of test compounds (1-100 μg/ml) and 490 μl of phosphate buffer (pH 6.9). 250 μl of 5mM p-nitrophenyl α-d-glucopyranoside (p-NPG) were added to this reaction mixture and incubated for 10 min at 37 °C. […] The α-glucosidase inhibitory activity was calculated as a measure of p-nitrophenol released from p-NPG. […] The percentage inhibition was calculated using the following formula; % Inhibition = (^Astandard^- Asample) / ^Astandard × 100.

[2] = tested on: 3T3 (mouse fibroblast) cells; assay: MTT assay for cytotoxicity analysis; format: cell-based; conditions: for cytotoxic effects against 3T3 (mouse fibroblast) cells, in words: MTT, 1.875-30 µM; for inhibition at 1.875 µM / inhibition at 3.75 µM / inhibition at 7.5 µM / inhibition at 15 µM / inhibition at 30 µM: Mus musculus, NIH3T3, 48 h, 3T3 cells, 48 hr, read-out: % Growth Inhibition
Method: Cytotoxic activity of compounds was evaluated in 96-well flat-bottomed microplates by using the standard MTT (3-[4, 5-dimethylthiazole-2-yl]-2, 5-diphenyl-tetrazolium bromide) colorimetric assay ([34]). For this purpose, 3T3 (mouse fibroblast, ATCC # CRL-1658, Lot # 59049195) cells were cultured in Dulbecco’s Modified Eagle Medium, supplemented with 5% fetal bovine serum (FBS), 100 IU/ml penicillin, and 100 µg/ml streptomycin in 75 cm^2 flasks, and kept in a 5% CO2 incubator at 37 °C. Exponentially growing cells were harvested, counted with a hemocytometer, and diluted with a particular medium. Cell culture with concentration of 5x10^4 cells/ml was prepared and introduced (100 µl/well) into 96-well plates. After overnight incubation, the medium was removed and 200 µl of fresh medium was added with various oxadiazole concentrations (30 µM, 15 µM, 7.5 µM, 3.75 µM, and 1.875 µM). After 48 hr, 200 µl MTT (0.5 mg/ml) was added to each well and incubated further for 4 hr. Subsequently, 100 µl of DMSO was added to each well. The extent of MTT reduction to formazan within cells was calculated by measuring the absorbance at 540 nm, using a microplate reader (Spectra Max Plus, Molecular Devices, CA, USA). The cytotoxicity was recorded as concentration causing 50% growth inhibition (IC50) for 3T3 cells. The percent inhibition was calculated by using the following formula;
% Inhibition=100-((mean of O.D of test compound-mean of O.D of negative control)/ (mean of O.D of positive control - mean of O.D of negative control) *100).
The results (% inhibition) were processed by using SoftMax Pro software (Molecular Device, USA).

| SMILES | % Inhibition (alpha-amylase) [1] [%] | IC50 [1] [µM] | % Inhibition (alpha-glucosidase) (α-glucosidase) [%] | IC50 µg/ml ± SEM (alpha-glucosidase inhibition) (α-glucosidase) | melting point [°C] | cytotoxic effects against 3T3 (mouse fibroblast) cells, in words [2] | inhibition at 1.875 µM [2] [%] | inhibition at 3.75 µM [2] [%] | inhibition at 7.5 µM [2] [%] | inhibition at 15 µM [2] [%] | inhibition at 30 µM [2] [%] |
| --- | --- | --- | --- | --- | --- | --- | --- | --- | --- | --- | --- |
| OCCSc1nnc(-c2ccccc2Cl)o1 [Compound 5c, 2-{[5-(2-chlorophenyl)-1,3,4-oxadiazol-2-yl]sulfanyl} ethan-1-ol] | 49.41 | 267 | 40.04 | 69.04 ± 0.27 µg/mL (≈ 269 µM) | 165 |  |  |  |  |  |  |
| OCCSc1nnc(-c2ccncc2)o1 [4a(c), 2-{[5-(pyridin-4-yl)-1,3,4-oxadiazol-2-yl]sulfanyl} ethan-1-ol] | 3.21 | 1770 | 16.3 | 299.11 ± 0.31 µg/mL (≈ 1340 µM) | 180 |  |  |  |  |  |  |
| OCCSc1nnc(-c2ccc(O)cc2)o1 [Compound 5b, 4-{5-[(2-hydroxyethyl)sulfanyl]-1,3,4-oxadiazol-2-yl} phenol] | 50.11 | 272 | 41.8 | 62.01 ± 0.92 µg/mL (≈ 260 µM) |  |  |  |  |  |  |  |
| OCCSc1nnc(-c2cc(O)c(O)c(O)c2)o1 [Compound 5f, 5-{5-[(2-hydroxyethyl)sulfanyl]-1,3,4-oxadiazol-2-yl} benzene-1,2,3-triol] | 19.04 | 772 | 9.04 | 273.06 ± 0.04 µg/mL (≈ 1010 µM) | 265 to 270 |  |  |  |  |  |  |
| OCCSc1nnc(-c2cccc(Br)c2)o1 [Compound 5d, 2-{[5-(3-bromophenyl)-1,3,4-oxadiazol-2-yl]sulfanyl} ethan-1-ol] | 43.6 | 298 | 39.7 | 73.61 ± 0.02 µg/mL (≈ 244 µM) | 186 to 190 |  |  |  |  |  |  |
| OCCSc1nnc(-c2cccc(I)c2)o1 [Compound 5e, 2-{[5-(3-iodophenyl)-1,3,4-oxadiazol-2-yl]sulfanyl} ethan-1-ol] | 40.2 | 279 | 40.2 | 68.02 ± 0.43 µg/mL (≈ 195 µM) | 170 |  |  |  |  |  |  |
| OCCSc1nnc(-c2ccccn2)o1 [4a(a), 2-{[5-(pyridin-2-yl)-1,3,4-oxadiazol-2-yl]sulfanyl} ethan-1-ol] | 9.42 | 1300 | 97.2 | 15.45 ± 0.20 µg/mL (≈ 69.2 µM) |  |  |  |  |  |  |  |
| OCCSc1nnc(-c2ccccc2O)o1 [Compound 5a, 2-{5-[(2-hydroxyethyl)sulfanyl]-1,3,4-oxadiazol-2-yl} phenol] | 56.41 | 252 | 98.14 | 12.27 ± 0.41 µg/mL (≈ 51.5 µM) | 165 to 170 | negligible cytotoxic effects | 3 | 5 | 12 | 16 | 26.2 |
| OCCSc1nnc(-c2ccccc2)o1 [Compound 5g, 2-[(5-phenyl-1,3,4-oxadiazol-2-yl)sulfanyl] ethan-1-ol] | 92.16 | 58.9 | 36.16 | 80.8 ± 0.52 µg/mL (≈ 364 µM) | 207 to 210 | negligible cytotoxic effects | ~1.5 | 3 | 8 | 10 | 19.6 |
| OCCSc1nnc(-c2cccnc2)o1 [4a(b), 2-{[5-(pyridin-3-yl)-1,3,4-oxadiazol-2-yl]sulfanyl} ethan-1-ol] | 26 | 831 |  | No effect |  |  |  |  |  |  |  |
| OCCN1C[C@H](O)[C@@H](O)[C@H](O)[C@H]1CO [Miglitol, reference compound] |  |  | 98.9 | 11.47 ± 0.02 µg/mL (≈ 55.4 µM) |  |  |  |  |  |  |  |
